We go through 17 molecules from US9133163B2, “Dihydropyrazole GPR40 modulators” (Bristol-Myers Squibb Company, priority 2012, dated 2015).

The target of experiment [1] is T1, hGPR40 (Homo sapiens, UniProt O14842). Description: FDSS-based intracellular calcium assay. Type of experiment: cell-based. On the set-up: 3xFLAG; expressed in transfected cells. Particulars: intracellular Ca2+ response, cells expressing GPR40. The method, then: FDSS-Based Intracellular Calcium Assay
Compounds are dissolved in DMSO and diluted to desired concentrations with assay buffer and added to the cells as 3× solution (20 μL per well). Run fluorescence/luminescence reader FDSS (Hamamatsu) to read intracellular Ca^2+ response.

Another experiment concerns C57BL6 mice. Description: Acute oral glucose tolerance test. Type of experiment: in vivo. Particulars: % change in glucose AUC (0-180 min) from vehicle, 0.3 mg/kg oral, co-administered with glucose 2 g/kg. On the procedure: Acute Oral Glucose Tolerance Test
Ten week old C57BL6 mice were housed individually and fasted for 5 hours on the day of study. Tail vein sampling was performed from nicked tails to obtain plasma samples. Baseline plasma samples were taken at t=0. Mice were orally treated with vehicle or compounds co-administered with glucose (2 g/kg). Sampling thereafter from tails of treated mice at 20, 40, 60, 120 and 180 min provided data used for generating glucose excursion curves from which 0-180 min blood glucose excursion profiles were generated. The area under the curve (AUC) allowed for assessment of glucose lowering by compound treatments. Blood samples were collected in EDTA-treated tubes (MICROVETTE® CB300, Sarstedt, Numbrecht, Germany), stored on ice and spun @ 6000 rpm for 10 minutes. Plasma glucose was analyzed on the same day using an AU680 Clinical Chemistry Analyzer (Beckman Coulter, Brea, Calif.). Statistical analysis is a one way ANOVA with Dunnett's post hoc test or two-way student's t test where appropriate. P values less than 0.05 were considered statistically significant.

For experiment [2], the target named is T1, hGPR40. The experiment can be described thus: GPR40 IP-One HTRF assay in HEK293/GPR40 inducible cell lines. In kind it is cell-based. The arrangement: expressed in transfected cells. Particulars: HEK293 cells with tetracycline-inducible human GPR40; read-out: hGPR40 IP1 EC50. The method, then:
GPR40 IP-One HTRF Assays in HEK293/GPR40 Inducible Cell Lines
Human, mouse and rat GPR40-mediated intracellular IP-One HTRF assays were established using human embryonic kidney HEK293 cells stably transfected with a tetracycline-inducible human, mouse or rat GPR40 receptor. Cells were routinely cultured in growth medium containing DMEM (Gibco Cat. #12430-047), 10% qualified FBS (Sigma, Cat. #F2442), 200 μg/ml hygromycin (Invitrogen, Cat. #16087-010) and 1.5 μg/ml blasticidin (Invitrogen, Cat. #R210-01). About 12-15 million cells were passed into a T175 tissue culture flask (BD FALCON® 353112) with growth medium and incubated for 16-18 hours (overnight) at 370 C with 5% CO2. The next day, assay medium was exchanged with growth medium containing 1000 ng/mL of tetracycline (Fluka Analytical, Cat. #87128) to induce GPR40 expression for 18-24 hours at […] incubator with 5% CO2. After induction, the cells were washed with PBS (Gibco, Cat. #14190-036) and detached with Cell Stripper (CELLGRO®, Cat. #25-056-CL). 10-20 mL growth medium were added to the flask and cells were collected in 50 mL tubes (FALCON®, Cat. #352098) and spun at 1000 RPM for 5 minutes. Culture medium was aspirated and the cells were resuspended in 10 mL of 1× IP-One Stimulation Buffer from the Cisbio IP-One kit (Cisbio, Cat. #62IPAPEJ). The cells were diluted to 1.4×10^6 cells/mL in Stimulation Buffer.
Test compounds were 3-fold, 11-point serially diluted in DMSO in a REMP assay plate (Matrix Cat. #4307) by BIOCEL® (Agilent). The compounds were transferred into an Echo plate (LABCYTE, Cat. #LP-0200) and […] of diluted compounds were transferred to an assay plate (proxi-plate from Perkin Elmer, Cat. #6008289) by Echo acoustic nano dispenser (LABCYTE, model ECHO550). 14 μL of the diluted cells were then added to the assay plate by Thermo (SN 836 330) CombiDrop and incubated at room temperature for 45 minutes. Then 3 μL of IP1 coupled to dye D2 from the Cisbio IP-One kit were added to the assay plate followed by 3 μL of Lumi4TM-Tb cryptate K from the kit. The plate was further incubated at room for 1 hour before reading on the Envision (Perkin Elmer Model2101) with an HTRF protocol. Activation data for the test compound over a range of concentrations was plotted as percentage activation of the test compound (100%=maximum response). After correcting for background [(sample read-mean of low control)/(mean of high control−mean of low control)](low control is DMSO without any compound), EC50 values were determined. The EC50 is defined as the concentration of test compound which produces 50% of the maximal response and was quantified using the 4 parameter logistic equation to fit the data.
Background: Time-resolved FRET reads energy transfer from a long-lived donor to a nearby acceptor.

T1 sequence (O14842 whole entry): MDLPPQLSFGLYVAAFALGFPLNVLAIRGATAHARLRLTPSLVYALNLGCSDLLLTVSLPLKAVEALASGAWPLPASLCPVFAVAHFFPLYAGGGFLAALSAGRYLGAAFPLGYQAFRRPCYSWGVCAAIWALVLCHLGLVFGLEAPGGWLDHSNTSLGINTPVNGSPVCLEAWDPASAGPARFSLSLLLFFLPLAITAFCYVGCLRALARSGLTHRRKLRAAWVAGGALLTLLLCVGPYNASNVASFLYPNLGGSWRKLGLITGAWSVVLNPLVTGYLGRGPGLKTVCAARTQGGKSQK

A word on the EC50: it is the midpoint of the concentration-response curve. For `COc1ccc(F)c(N2CCC(Oc3ccc(N4N=C(C(F)(F)F)[C@@H](C)[C@@H]4CC(=O)O)cc3)CC2)c1` [Example 1, 2-((4S,5S)-1-(4-((1-(2-Fluoro-5-methoxyphenyl)piperidin-4-yl)oxy)phenyl)-4-methyl-3-(trifluoromethyl)-4,5-dihydro-1H-pyrazol-5-yl)acetic acid], the half-maximal effective concentration (EC50) was determined as 114 nM on hGPR40 [1] and 17 nM at hGPR40 [2]. For the same molecule, the “Acute oral glucose tolerance” value with C57BL6 mice is listed as −47%.
For `COc1cc(N2CC[C@@H](Oc3ccc(N4N=C(C(F)(F)F)[C@@H](C)[C@@H]4CC(=O)O)cc3)[C@H](C)C2)c(Cl)cn1` (single isomer, unassigned) [Example 81, Isomer 2 (neutral form)], in that order: 71 nM, 9 nM and −54%.
For `CCOc1ccc(F)c(N2CCC(Oc3ccc(N4N=C(C(F)(F)F)[C@@H](C)[C@@H]4CC(=O)O)cc3)C(CC)C2)c1` (single isomer, unassigned) [Example 25 (Isomer 2)], in that order: 113 nM, 21 nM and −38%.
In the case of `CCc1ccc(F)c(N2CCC(Oc3ccc(N4N=C(C(F)(F)F)[C@@H](C)[C@@H]4CC(=O)O)cc3)CC2)c1` [Example 65, 2-((4S,5S)-1-(4-((1-(5-Ethyl-2-fluorophenyl)piperidin-4-yl)oxy)phenyl)-4-methyl-3-(trifluoromethyl)-4,5-dihydro-1H-pyrazol-5-yl)acetic acid], the concentration for a half-maximal effect (EC50) on hGPR40 [1] was found to be 583 nM; at hGPR40 [2], 297 nM.
Taken in the same sequence, the figures for `[2H]C([2H])([2H])Oc1cc(N2CC[C@@H](Oc3ccc(N4N=C(C(F)(F)F)[C@@H](C)[C@@H]4CC(=O)O)cc3)[C@H](C)C2)c(Cl)cn1` [Example 87, 2-((4S,5S)-1-(4-(((3R,4R)-1-(5-Chloro-2-d3-methoxypyridin-4-yl)-3-methylpiperidin-4-yl)oxy)phenyl)-4-methyl-3-(trifluoromethyl)-4,5-dihydro-1H-pyrazol-5-yl)acetic acid] were 74 nM and 6 nM.
Taken in the same sequence, the figures for `CCOc1ccc(F)c(N2CCC(Oc3ccc(N4N=C(C(F)(F)F)[C@@H](C)[C@@H]4CC(=O)O)cc3)C(CC(C)C)C2)c1` (single isomer, unassigned) [Example 27 (Isomer 2)] were 34 nM and 84 nM.
In the case of `Cc1ccc(F)c(N2CCC(Oc3ccc(N4N=C(C(F)(F)F)[C@@H](C)[C@@H]4CC(=O)O)cc3)CC2)c1` [Example 36, 2-((4S,5S)-1-(4-((1-(2-Fluoro-5-methylphenyl)piperidin-4-yl)oxy)phenyl)-4-methyl-3-(trifluoromethyl)-4,5-dihydro-1H-pyrazol-5-yl)acetic acid], the half-maximal effective concentration (EC50) on hGPR40 [1] is 440 nM; on hGPR40 [2] it was 86 nM.
Taken in the same sequence, the figures for `CCOc1ccc(F)c(N2CC[C@@H](Oc3ccc(N4N=C(c5ccc(C#N)cc5)[C@@H](CC)[C@@H]4CC(=O)O)cc3)[C@H](C)C2)c1` [Example 99, 2-((4S,5S)-3-(4-Cyanophenyl)-1-(4-(((3R,4R)-1-(5-ethoxy-2-fluorophenyl)-3-methylpiperidin-4-yl)oxy)phenyl)-4-ethyl-4,5-dihydro-1H-pyrazol-5-yl)acetic acid] were 25 nM and 20 nM.
As for `CCOc1ccc(F)c(N2CCC(Oc3ccc(N4N=C(c5ccc(C#N)cc5)[C@@H](C)[C@@H]4CC(=O)O)cc3)CC2)c1` [Example 93, 2-((4S,5S)-3-(4-Cyanophenyl)-1-(4-((1-(5-ethoxy-2-fluorophenyl)piperidin-4-yl)oxy)phenyl)-4-methyl-4,5-dihydro-1H-pyrazol-5-yl)acetic acid], the EC50 on hGPR40 [1] is 82 nM; on hGPR40 [2], 7 nM. Further, the “Acute oral glucose tolerance” value in the experiment with C57BL6 mice is listed as −56%.
Consider `CCOc1cc(F)c(F)c(N2CCC(Oc3ccc(N4N=C(C(F)(F)F)[C@@H](C)[C@@H]4CC(=O)O)cc3)CC2)c1` [Example 17, 2-((4S,5S)-1-(4-((1-(5-Ethoxy-2,3-difluorophenyl)piperidin-4-yl)oxy)phenyl)-4-methyl-3-(trifluoromethyl)-4,5-dihydro-1H-pyrazol-5-yl)acetic acid], for which the half-maximal effective concentration (EC50) on hGPR40 [1] worked out at 286 nM; on hGPR40 [2], 294 nM.
As to `COc1cc(N2CCC(Oc3ccc(N4N=C(C(F)(F)F)[C@@H](C)[C@@H]4CC(=O)O)cc3)CC2)c(Cl)cn1` [Example 77, 2-((4S,5S)-1-(4-((1-(5-Chloro-2-methoxypyridin-4-yl)piperidin-4-yl)oxy)phenyl)-4-methyl-3-(trifluoromethyl)-4,5-dihydro-1H-pyrazol-5-yl)acetic acid], the EC50 at hGPR40 [1] stood at 110 nM; on hGPR40 [2], 20 nM. Further, in the experiment on C57BL6 mice, the “Acute oral glucose tolerance” value is given as −38%.
As to `COc1cccc(N2CCC(Oc3ccc(N4N=C(C(F)(F)F)[C@@H](C)[C@@H]4CC(=O)O)cc3)CC2)c1` [Example 40, 2-((4S,5S)-1-(4-((1-(3-Methoxyphenyl)piperidin-4-yl)oxy)phenyl)-4-methyl-3-(trifluoromethyl)-4,5-dihydro-1H-pyrazol-5-yl)acetic acid], the 50% effective concentration (EC50) on hGPR40 [1] was determined as 620 nM; at hGPR40 [2], 107 nM.
For `COc1cc(F)c(F)c(N2CCC(Oc3ccc(N4N=C(C(F)(F)F)[C@@H](C)[C@@H]4CC(=O)O)cc3)CC2)c1` [Example 16, 2-((4S,5S)-1-(4-((1-(2,3-Difluoro-5-methoxyphenyl)piperidin-4-yl)oxy)phenyl)-4-methyl-3-(trifluoromethyl)-4,5-dihydro-1H-pyrazol-5-yl)acetic acid], in that order: 273 nM and 133 nM.
Take `COc1cc(N2CCC(Oc3ccc(N4N=C(C(F)(F)F)[C@@H](C)[C@@H]4CC(=O)O)cc3)CC2)c(F)cn1` [Example 79, 2-((4S,5S)-1-(4-((1-(5-Fluoro-2-methoxypyridin-4-yl)piperidin-4-yl)oxy)phenyl)-4-methyl-3-(trifluoromethyl)-4,5-dihydro-1H-pyrazol-5-yl)acetic acid]: the figures for the EC50 at hGPR40 [1] and on hGPR40 [2] were 163 nM and 94 nM, respectively.
`CC[C@@H]1C(C(F)(F)F)=NN(c2ccc(OC3CCN(c4cc(OC)ccc4F)CC3)cc2)[C@H]1CC(=O)O` (single isomer, unassigned) [Example 88, Isomer 1]: the concentration for a half-maximal effect (EC50) worked out at 78 nM at hGPR40 [1] and 18 nM at hGPR40 [2].
For `CCOc1ccc(F)c(N2CCC(Oc3ccc(N4N=C(C(F)(F)F)[C@@H](C)[C@@H]4CC(=O)O)cc3)C(CC(C)C)C2)c1` (single isomer, unassigned) [Example 27 (Isomer 1)], in that order: 412 nM and 90 nM.
For `CCc1cccc(N2CCC(Oc3ccc(N4N=C(C(F)(F)F)[C@@H](C)[C@@H]4CC(=O)O)cc3)CC2)c1` [Example 71, 2-((4S,5S)-1-(4-((1-(3-Ethylphenyl)piperidin-4-yl)oxy)phenyl)-4-methyl-3-(trifluoromethyl)-4,5-dihydro-1H-pyrazol-5-yl)acetic acid], in that order: 1180 nM and 224 nM.
